Laboratory results reported in patent US20220089602A1, “COMPOUNDS THAT INDUCE FERROPTIC CELL DEATH” (The Board of Trustees of the University of Illinois, priority 2019, published 2022).
pIC50: −log10 of the molar value.

Experiments:
[1] = molecular target: T1, TXN (Homo sapiens, UniProt P10599); assay: Biotin-streptavidin pulldown with P29, competition by ferroptocide, LC/LC-MS/MS; type: binding; conditions: DMSO/ferroptocide spectral count ratio of P29-labeled enriched proteins
T1 construct: endogenous in cells; host or cells: HCT 116 (and ES-2) cells
T1 sequence (P10599 whole entry): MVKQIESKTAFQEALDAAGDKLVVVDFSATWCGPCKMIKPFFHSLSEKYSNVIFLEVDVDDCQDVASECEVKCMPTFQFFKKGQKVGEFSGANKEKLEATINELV
Method: (§1) ES-2 and HCT 116 (20×10^6 cells/flask) were plated in T175 flasks and treated with DMSO or 20 µM ferroptocide for 1 hr followed by treatment with 20 μM P29 for 1 hr. Cells were lysed via sonication (6500 g, 4 min) in DPBS and the soluble proteome was isolated after […] (45000 g, 45 min). Bradford assay was used to determine protein concentration. The soluble protein lysates in DPBS (pH 7.4) (500 μL, 2 mg/mL) were treated with biotin-azide (100 μM, 50× stock in DMSO), TCEP (1 mM, 50× fresh stock in water), TBTA ligand (100 μM, 17× stock in DMSO:t-butanol=1:4), and copper(II) sulfate (1 mM, 50× stock in water) followed by incubation at r.t. for 1 hr. Samples were centrifuged (6500 g, 4 min, 4° C.) and the supernatant was discarded. The pellets were resuspended in cold methanol by sonication (2×) and then were solubilized in DPBS containing 1.2% SDS via sonication and heating (90° C., 5 min). A final SDS concentration of 0.2% was achieved after addition of 5 mL of DPBS to the SDS-solubilized proteome samples. The solution was incubated overnight at 4° C. with 100 μL of streptavidin-agarose beads (ThermoFisher, washed 3× with DPBS to remove storage buffer). Samples were rotated at 22° C. for 2 hr before being washed by 5 mL 0.2% SDS/DPBS, 3×5 mL DPBS, and 3×5 mL water. The beads were pelleted by centrifugation (1400×g, 3 min) between washes.
(§2) The washed beads were suspended in 500 μL of 6 M urea/DPBS and 10 mM DTT (from 20× stock in water) and heated for 20 min on a 65° C. heat block. Upon addition of iodoacetamide (20 mM from 50× stock in water), samples were allowed to react at 37° C. for 30 min while shaking. Following reduction and alkylation, the beads were pelleted by centrifugation and resuspended in 200 μL of 2 M urea/DPBS, 1 mM CaCl2) (100× stock in water), and sequencing-grade trypsin (2 μg). The bead digestion occurred overnight at 37° C. while shaking. Next day, the beads were pelleted by centrifugation and washed with 2×50 μL water. The washes were combined with the supernatant from the trypsin digestion step, and after addition of formic acid (15 μL) to each sample, they were stored at −20° C. until mass spectrometry analysis.
(§3) LC/LC-MS/MS analysis was performed on an LTQ-Orbitrap Discovery mass spectrometer (ThermoFisher) coupled to an Agilent 1200 series HPLC. Peptide digests were pressure loaded onto a 250 m fused silica desalting column packed with 4 cm of Aqua C18 reverse phase resin (Phenomenex). The peptides were eluted onto a biphasic column (100 m fused silica with a 5, tip, packed with 10 cm C18 and 4 cm Partisphere strong cation exchange resin (SCX, Whatman) using a gradient 5-100% Buffer B in Buffer A (Buffer A: 95% water, 5% acetonitrile, 0.1% formic acid; Buffer B: 20% water, 80% acetonitrile, 0.1% formic acid). The peptides were then eluted from the SCX onto the C18 resin and into the mass spectrometer using 4 salt steps previously described (Nat. Protoc. 2, 1414-1425, (2007)). The flow rate through the column was set to ˜0.25 μL/min and the spray voltage was set to 2.75 kV. One full MS scan (FTMS) (400-1800 MW) was followed by 8 data dependent scans (ITMS) of the n^th most intense ions. The tandem MS data were searched using the SEQUEST algorithm using a concatenated target/decoy variant of the human UniProt database. A static modification of +57.02146 on cysteine was specified to account for alkylation by iodoacetamide. MS2 spectra matches were assembled into protein identifications and filtered using DTASelect2.0 to generate a list of protein hits with a peptide false-discovery rate of 5%. The mass spectrometry proteomics data have been deposited to the ProteomeXchange Consortium via the PRIDE [1] partner repository with the dataset identifier PXD012805.

[2] = molecular target: T2, TXNRD2 (Homo sapiens, UniProt Q9NNW7); assay: as above; type: binding; conditions: DMSO/ferroptocide spectral count ratio of P29-labeled enriched proteins
T2 construct: HCT 116 cells were pre-treated with ferroptocide or DMSO, followed by treatment with P29; endogenous in cells; host or cells: HCT 116 (and ES-2) cells
T2 sequence (Q9NNW7 37-524): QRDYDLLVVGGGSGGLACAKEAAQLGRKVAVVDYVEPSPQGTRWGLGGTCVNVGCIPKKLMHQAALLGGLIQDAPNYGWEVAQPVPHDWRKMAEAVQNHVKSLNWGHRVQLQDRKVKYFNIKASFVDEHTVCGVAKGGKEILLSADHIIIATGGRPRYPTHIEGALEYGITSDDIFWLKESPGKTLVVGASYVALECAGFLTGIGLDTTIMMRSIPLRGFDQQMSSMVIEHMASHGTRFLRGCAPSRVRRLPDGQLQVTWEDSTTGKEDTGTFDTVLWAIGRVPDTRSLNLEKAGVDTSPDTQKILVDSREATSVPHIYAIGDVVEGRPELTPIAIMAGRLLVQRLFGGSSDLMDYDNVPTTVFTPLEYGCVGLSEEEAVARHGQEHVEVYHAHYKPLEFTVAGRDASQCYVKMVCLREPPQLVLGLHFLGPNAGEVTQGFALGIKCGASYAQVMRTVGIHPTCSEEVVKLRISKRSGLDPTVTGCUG
Method: as §1, §2, §3

[3] = molecular target: T3, PGLS (Homo sapiens, UniProt O95336); assay: as above; type: binding; conditions: DMSO/ferroptocide spectral count ratio of P29-labeled enriched proteins
T3 construct: endogenous in cells; host or cells: HCT 116 (and ES-2) cells
T3 sequence (O95336 whole entry): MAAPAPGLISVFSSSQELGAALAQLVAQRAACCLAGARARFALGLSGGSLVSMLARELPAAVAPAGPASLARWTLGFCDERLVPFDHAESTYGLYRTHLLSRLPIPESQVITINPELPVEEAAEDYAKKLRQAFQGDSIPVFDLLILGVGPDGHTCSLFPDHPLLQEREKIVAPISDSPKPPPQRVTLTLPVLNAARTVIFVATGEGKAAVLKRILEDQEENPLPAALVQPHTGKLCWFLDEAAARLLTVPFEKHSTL
Method: as §1, §2, §3

[4] = molecular target: T4, PDP1 (Homo sapiens, UniProt Q9P0J1); assay: as above; type: binding; conditions: DMSO/ferroptocide spectral count ratio of P29-labeled enriched proteins
T4 construct: endogenous in cells; host or cells: HCT 116 (and ES-2) cells
T4 sequence (Q9P0J1 72-537): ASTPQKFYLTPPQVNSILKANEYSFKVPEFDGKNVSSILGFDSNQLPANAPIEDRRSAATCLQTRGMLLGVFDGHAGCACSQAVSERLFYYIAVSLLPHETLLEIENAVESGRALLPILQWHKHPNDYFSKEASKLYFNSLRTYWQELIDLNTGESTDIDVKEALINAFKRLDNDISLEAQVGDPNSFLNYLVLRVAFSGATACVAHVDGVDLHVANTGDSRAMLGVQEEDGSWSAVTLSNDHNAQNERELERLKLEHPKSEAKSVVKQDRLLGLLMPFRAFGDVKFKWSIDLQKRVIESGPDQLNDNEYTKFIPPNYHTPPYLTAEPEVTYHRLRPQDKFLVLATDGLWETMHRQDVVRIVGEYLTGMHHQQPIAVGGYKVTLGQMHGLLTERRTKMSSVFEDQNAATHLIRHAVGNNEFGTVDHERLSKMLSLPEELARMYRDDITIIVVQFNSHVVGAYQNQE
Method: as §1, §2, §3

[5] = molecular target: T5, TXNRD3 (Homo sapiens, UniProt Q86VQ6); assay: as above; type: binding; conditions: DMSO/ferroptocide spectral count ratio of P29-labeled enriched proteins
T5 construct: endogenous in cells; host or cells: HCT 116 (and ES-2) cells
T5 sequence (Q86VQ6 whole entry): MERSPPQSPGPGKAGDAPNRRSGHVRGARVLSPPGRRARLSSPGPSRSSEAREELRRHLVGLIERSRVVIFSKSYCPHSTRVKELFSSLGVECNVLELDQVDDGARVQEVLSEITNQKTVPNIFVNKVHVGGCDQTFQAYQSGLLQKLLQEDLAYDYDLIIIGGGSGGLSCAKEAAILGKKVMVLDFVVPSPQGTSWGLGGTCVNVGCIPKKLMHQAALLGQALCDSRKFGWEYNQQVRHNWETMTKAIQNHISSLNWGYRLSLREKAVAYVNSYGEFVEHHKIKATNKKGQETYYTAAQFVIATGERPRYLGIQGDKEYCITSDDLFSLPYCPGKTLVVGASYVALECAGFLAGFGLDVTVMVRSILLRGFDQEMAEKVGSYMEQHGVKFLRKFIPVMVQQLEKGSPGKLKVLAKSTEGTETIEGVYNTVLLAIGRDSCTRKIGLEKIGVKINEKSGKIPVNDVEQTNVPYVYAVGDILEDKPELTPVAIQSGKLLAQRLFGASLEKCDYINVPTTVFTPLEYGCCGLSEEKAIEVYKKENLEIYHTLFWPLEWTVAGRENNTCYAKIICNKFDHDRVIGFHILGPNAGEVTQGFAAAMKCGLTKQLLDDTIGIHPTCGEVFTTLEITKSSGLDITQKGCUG
Method: as §1, §2, §3

[6] = test system: ES-2 cell line; assay: 72 hr cell viability assay (Alamar Blue), dose response IC50; type: cell-based; conditions: Homo sapiens; 72 hr, ES-2 cell line, Alamar Blue fluorescence, mean ± s.e.m., n ≥ 3
Method: 40 μL of media was added to each well of a 384-well tissue culture-treated plate. 3×100 nL of compound in DMSO was then pin-transferred from compound storage plates (2 mM stocks) into media-containing wells using the Platemate Plus at the UIUC High Throughput Screening Facility. A 100,000 cells/mL suspension of ES-2 cells was prepared, and 10 μL was added to each well for a final concentration of 1000 cells/well. Doxorubicin (100 μM final) was used as a positive control. Plates were sealed with gas-permeable seals and incubated at 37° C. for 72 h. After incubation, 5 μL of Alamar blue (440 μM resazurin in sterile PBS) was added and allowed to incubate for 3-4 h, until visible color change occurred. Fluorescence was measured in a Molecular Devices SpectraMax 3 (excitation=555 nm, emission=585 nm, emission cutoff=570 nm).
To a 384-well plate, 40 μL of 1.25× compound dilution or 1.25% DMSO-containing media was added (final volume of 1% DMSO). Concentrations of compounds tested were 100 μM to 100 nM. On each plate at least 3 technical replicates per compound were performed. Next, 10 μL of a 100,000 cells/mL suspension was added to each well, yielding a final concentration of 1,000 cells/well. To three wells in column 2 was added 1 μL of 10 mM doxorubicin (final concentration of 200 μM) as positive control of cell death. Plates were sealed with gas-permeable seals and incubated at 37° C. for 72 h. At that time, 5 μL of Alamar blue (440 μM resazurin in sterile PBS) was added and plates were incubated for 3-4 hours. Fluorescence was read on a Molecular Devices SpectraMax 3 (excitation=555 nm, emission=585 nm, emission cutoff=570 nm). Wells were normalized to the average of untreated wells (0% cell death). The data were plotted as compound concentration versus percent dead cells and fitted to a logistic-dose response curve using OriginPro 2015 (OriginLab, Northampton, Mass.). The data were generated in triplicate, and IC50 values are reported as the average of three separate experiments along with standard error of the mean.

C[C@@H]1CC[C@@]23C[C@H](O)C(=O)[C@@]2(O)[C@]1(C)[C@H](OC(=O)CCl)C[C@@H](C1=CCn2c(=O)n(-c4ccccc4)c(=O)n2C1)[C@@H]3C [Compound P18, ferroptocide]
Fold Change [1]: 11.1
Fold Change [2]: 2
Fold Change [3]: 2.7
Fold Change [4]: 3.7
Fold Change [5]: 7.4
pIC50 [6]: 5.80
